Measured values from article PMC3877894, “Cytotoxic, Cytostatic and HIV-1 PR Inhibitory Activities of the Soft Coral Litophyton arboreum” (Marine Drugs, 2013).
Where “and” joins values, the source holds several entries; their conditions need not be identical. Equal values may be shown once. Entries after “also recorded” stand apart in the source; their conditions may differ. Read-outs that look alike come from different tables or passages of the source. Starred links: 1 amine or outer side, 2 acyl side, 3 side chain; linkers in the order of their positions; H or OH if unused. Positions of bridges follow the written chain, without caps; N, C: chain ends. Non-standard residues stand in square brackets, D forms with d. Residues, ends and D or L forms follow the SMILES beside them. Chains are numbered I, II in the order given. Actinocin(9to1) = Cc1c2oc3c(C)ccc(C(=O)[*:1])c3nc-2c(C(=O)[*:2])c(N)c1=O; NMeV = CN[C@H](C(=O)O)C(C)C; Sar = CNCC(=O)O

What was measured:
[1] = XTT cytotoxicity assay in HeLa cells; details: human
Procedure: (§1) HeLa, U937, and Vero cell lines were maintained in culture flasks containing Eagle’s Minimum Essential Medium supplemented with 10% heat-inactivated FBS and 1% antibiotics (100 U/mL penicillin, 100 μg/mL streptomycin, and 250 μg/mL fungizone). The cells were grown at 37 °C in a humidified incubator set at 5% CO2. Cells were subcultured after they formed a monolayer on the flask. The cells were detached by treating them with trypsin-EDTA (0.25% trypsin containing 0.01% EDTA) for 10 minutes and then by adding complete medium to inhibit the reaction. Cytotoxicity was measured by the XTT method using the Cell Proliferation Kit II. The method described by Zheng et al. was used to perform the assay. Cells were seeded (100 μL) in a 96-well microtiter plate (concentration 1 × 10^5 cells/mL). The plate was then incubated for 24 h at 37 °C and 5% CO2 to allow the cells to attach to the bottom of the wells. The compounds were each prepared to a stock solution of 20 mg/mL and added to the microtiter plate. Serial dilutions were made to range from a concentration of 100 μg/mL–0.7 μg/mL for each compound. The microtiter plate was incubated for a further 72 h. The control wells included vehicle-treated cells exposed to 2% DMSO and the positive control Actinomycin D, with concentrations ranging between 0.5 μg/mL and 0.002 μg/mL. After the 72 h incubation period, the XTT reagent (50 μL) was added to a final concentration of 0.3 mg/mL and the plate was then further incubated for another 2 h. After the incubation the absorbance of the color complex was read at 490 nm with a reference wavelength set at 690 nm. […] The IC50 values were reported at ±95% confidence intervals (±95% CI). The results were analyzed using the GraphPad Prism 4 program.

[2] = XTT cytotoxicity assay in U937 cells; details: human
Procedure: as §1

[3] = XTT cytotoxicity assay in Vero cells; details: African green monkey
Procedure: as §1

HIV-1 PR = biological target: T1, HIV-1 PR (Human immunodeficiency virus type 1 group M subtype B, UniProt P04585); assay: HIV-1 protease direct enzyme assay (fluorogenic peptide substrate); assay type: biochemical; details: for inhibition at 100 µg/mL: screened at 100 µg/mL
T1 construct: HIV-1 protease enzyme was purchased from Bachem Bioscience Inc; purchased Bachem Bioscience Inc
Procedure: HIV-1 protease enzyme was purchased from Bachem Bioscience Inc. King of Prussia, PA, […] and the substrate (a synthetic peptide that contains a cleavage site Tyr-Pro for HIV protease as well as two covalently modiﬁed amino acids for the detection of cleavage). The assay was performed according to procedures by Lam et al., 2000 [39], in black 96 well assay plates obtained from Corning Incorporated, (Corning, New York, NY, USA). The fluorescence intensity was measured at an excitation wavelength of 355 nm and an emission wavelength of 460 nm using a synergy microplate spectrofluorometer (BioTek, Analytical & Diagnostic products, South Africa). […] DMSO was included in the enzyme control (1% DMSO). […] The percentage inhibition was calculated based on the formula: 100 − [(Test reagent RFU − background RFU)/(untreated control RFU − blank) × 100] where RFU = relative fluorescence units.
All the experiments were repeated three times in order to ensure the precision and accuracy of the data.

HeLa cells [4] = assay: Real-time cell electronic sensing (RT-CES, xCELLigence) in HeLa cells; assay type: cell-based; details: for inhibition of cell proliferation compared to untreated cells (RT-CES): HeLa, Figure 5
Procedure: The xCELLigence system was used according to the instructions of the supplier (Roche Diagnostics, Mannheim, Germany and ACEA Biosciences, San Diego, CA, USA). HeLa cell line, media, trypsin-EDTA, fetal bovine serum (FBS), phosphate buffer saline (PBS), and antibiotics were supplied by […] Biological (Pty) Ltd. (Modderfontein, Johannesburg, South Africa). The electronic impedance of sensor electrodes that connect the E plate to the instrument is measured to allow monitoring and detection of physiological changes of the cells on the electrodes. The impedance measured between electrodes in an individual well depends on electrode geometry, ion concentration in the well and whether or not cells are attached to the electrodes. In the absence of cells, electrode impedance is mainly determined by the ion environment, both at the electrode/solution interface, and in the bulk solution. In the presence of cells, cells attached to the electrode sensor surfaces will act as insulators and thereby alter the local ion environment at the electrode/solution interface, leading to an increase in impedance. Thus, the more cells that are growing on the electrodes, the larger the value of electrode impedance. This assay has been described for the measurement of cytotoxicity and can be used to determine other cellular parameters such as cell proliferation, cytotoxicity start time, cell recovery, and cell response patterns in real time. HeLa cells were grown and expanded in tissue-culture flasks. After reaching ~75% confluence, the HeLa were washed with PBS, and afterwards detached from the flasks by a brief treatment with trypsin. Subsequently, 50 μL of cell culture media at room temperature was added into each well of E-plate. After this the plate was connected to the system and checked in the cell culture incubator for proper electrical-contacts and the background impedance was measured over 24 h. […] One-hundred microliters of each cell suspension was added to the 50 μL medium containing wells on the E-plate, in order to determine the optimum cell concentration. After 30 min incubation at room temperature, E-plates were placed into the cell culture incubator. Finally, adhesion, growth, and proliferation of the cells was monitored every 30 min for a period of up to 18 h via the incorporated sensor electrode arrays of the E-Plate. The electrical impedance was measured by the RTCA-integrated software of the xCELLigence system as a dimensionless parameter termed Cell index (CI). […] All experiments were run for 72 h after adding the compounds. All calculations were obtained using the RTCA-integrated software of the xCELLigence system.

HeLa cells [5] = assay: XTT cytotoxicity assay in HeLa cells; details: for IC50: read-out: Cytotoxicity IC50 HeLa, XTT, 72 h incubation
Procedure: as §1

[6] = test system: human prostate cancer cell line LNCaP; details: cited from earlier work
P-388 = details: cited from earlier work
A549 cancer cell lines = details: cited from earlier work
KB = test system: KB; set-up: method as in PMID 9722490; details: cited from earlier work
U937 cells = assay: XTT cytotoxicity assay in U937 cells; details: at 4.85 µM (HIV-1 PR IC50 concentration)
Procedure: as §1

Vero cell line = assay: XTT cytotoxicity assay in Vero cells; details: at 4.85 µM (HIV-1 PR IC50 concentration)
Procedure: as §1

HT-29 = details: cited from earlier work
[7] = HeLa cells, Cytotoxicity IC50 HeLa, XTT, 72 h incubation
[8] = HeLa cells, Cytotoxicity IC50 HeLa, XTT

Compound: Cc1c2oc3c(C)ccc(C(=O)N[C@@H]4C(=O)N[C@H](C(C)C)C(=O)N5CCC[C@H]5C(=O)N(C)CC(=O)N(C)[C@@H](C(C)C)C(=O)O[C@@H]4C)c3nc-2c(C(=O)N[C@@H]2C(=O)N[C@H](C(C)C)C(=O)N3CCC[C@H]3C(=O)N(C)CC(=O)N(C)[C@@H](C(C)C)C(=O)O[C@@H]2C)c(N)c1=O [Actinomycin D, reference compound] (I: T[dV]P[Sar][NMeV] / II: T[dV]P[Sar][NMeV]; ester I:1-I:C, II:1-II:C; linker I:N-II:N via Actinocin(9to1))
- IC50 at 72 h [1]: 5.1 ± 0.1 µM
- IC50 at 72 h [2]: 1.9 ± 0.865 µM
- IC50 at 72 h [3]: 8.8 ± 2.5 µM

Compound: CCCCCCCCCCCCCC=CCCC=CC(O)C(CO)NC(=O)CCCCCCCCCCC (stereo not drawn) [Compound 8, erythro-N-dodecanoyl-docosasphinga-(4E,8E)-dienine]
- IC50 (HIV-1 PR; read-out: IC50 HIV-1 PR): 4.8 ± 0.92 µM
- inhibition at 100 µg/mL (HIV-1 PR): 100%
- RT-CES (xCELLigence) effect in HeLa (HeLa cells [4]; 100 µg/mL): only affected at long incubation times; also recorded: low level cytotoxicity
- IC50 at 72 h [1, 7]: 71 µM
- IC50 (HeLa cells [5]): 38.2 ± 0.7 µM
- IC50 at 72 h ([2]; U937 cells): > 100 µM
- IC50 at 72 h ([3]; Vero cells): > 100 µM

Compound: CO[C@]1(C)CCC(C(C)C)=C[C@H]2[C@H]1CC[C@]2(C)O [Compound 4, 10-O-methyl alismoxide]
- IC50 at 72 h [1, 7]: 38 ± 0.7 µM
- IC50 at 72 h ([2]; U937 cells): 50 ± 0.23 µM
- IC50 at 72 h ([3]; Vero cells): 49.8 ± 0.5 µM

Compound: CCCCCCCCCCCCCCCCOC[C@@H](O)CO [Compound 6, (S)-chimyl alcohol]
- IC50 (HIV-1 PR; read-out: IC50 HIV-1 PR): 26.6 ± 2.6 µM
- inhibition at 100 µg/mL (HIV-1 PR): 100%
- IC50 at 72 h [1, 7]: 23.4 ± 5.8 µM
- IC50 at 72 h ([3]; Vero cells): 60 ± 1.14 µM

Compound: C=C(CCC(C)C1CCC2C3C(OC(C)=O)C=C4CC(O)CCC4(CO)C3CCC12C)C(C)C (stereo not drawn) [Compound 7, 7β-acetoxy-24-methylcholesta-5-24(28)-diene-3,19-diol]
- IC50 (HIV-1 PR): 4.85 ± 0.18 µM
- inhibition at 100 µg/mL (HIV-1 PR): 71.5%
- RT-CES response in HeLa (HeLa cells [4]; 2.5 µg/mL): dose dependent cytostatic response; also recorded: cytostatic effects
- RT-CES response in HeLa (HeLa cells [4]; 10 and 5 µg/mL): dose dependent cytotoxic response; also recorded: dose dependent cytotoxic tendency
- RT-CES cytotoxicity profile in HeLa (HeLa cells [4]; tested at IC50s obtained by XTT): confirmed their cytotoxic effects; also recorded: more toxic than the positive control
- Cytotoxicity IC50 LNCaP [6]: 15.5 µg/mL
- Cytotoxicity P-388 (P-388): 0.42 µg/mL
- Cytotoxicity A549 (A549 cancer cell lines): 0.81 µg/mL
- CC50 at 72 h ([1]; HeLa cells): 4.3 ± 0.75 µM
- IC50 at 72 h [1, 8]: 4.3 µg/mL
- IC50 at 72 h [1, 7]: 4.3 µM
- cell death in HeLa (HeLa cells [5]; at 4.85 µM (HIV-1 PR IC50 concentration)): 50%
- IC50 (HeLa cells [5]): 5.3 ± 0.6 µM
- Cytotoxicity KB (KB): 0.38 µg/mL
- cell death in U937 (U937 cells): 20%
- IC50 at 72 h [2]: 7.8 µg/mL and 10.6 µM
- effect in Vero (normal cells) (Vero cell line): no effect
- IC50 at 72 h ([3]; Vero cells): 31.3 ± 14 µM
- Cytotoxicity HT-29 (HT-29): 0.87 µg/mL

Compound: CC(C)C1=C[C@H]2[C@@H](CC[C@]2(C)O)[C@](C)(O)CC1 [Compound 5, alismoxide]
- RT-CES effect in HeLa (HeLa cells [4]; 60 μg/mL (Figure 5)): cytostatic behavior
- RT-CES (xCELLigence) effect in HeLa (HeLa cells [4]; 100 µg/mL): cytostatic effect
- inhibition of cell proliferation compared to untreated cells (RT-CES) (HeLa cells [4]): 50%
- IC50 at 72 h [1, 7]: > 100 µM
- IC50 at 72 h ([2]; U937 cells): > 100 µM
- IC50 at 72 h ([3]; Vero cells): > 100 µM

Compound: C=C1CCC(C(C)C)=CC2C1CCC2(C)O (centres unmarked) [Compound 2, alismol]
- IC50 (HIV-1 PR; read-out: IC50 HIV-1 PR): 7.2 ± 0.7 µM
- inhibition at 100 µg/mL (HIV-1 PR): 96.2%
- RT-CES effect in HeLa (HeLa cells [4]; 16 μg/mL (Figure 5)): cytostatic behavior
- RT-CES (xCELLigence) effect in HeLa (HeLa cells [4]; 30 µg/mL): cytostatic effect
- inhibition of cell proliferation compared to untreated cells (RT-CES) (HeLa cells [4]): 50%
- IC50 at 72 h [1, 7]: 30 ± 17.2 µM
- IC50 at 72 h ([3]; Vero cells): 49 µM

Compound: C=C(CC[C@@H](C)[C@H]1CCC2C3C(CC[C@@]21C)[C@@]1(CO)CC[C@H](O)CC1=C[C@@H]3O)C(C)C (stereo partly drawn) [Compound 9, 24-methylcholesta-5,24(28)-diene-3β,7β,19-triol]
- Cytotoxicity IC50 LNCaP [6]: 4.9 µg/mL
- Cytotoxicity P-388 (P-388): 0.24 µg/mL
- Cytotoxicity A549 (A549 cancer cell lines): 0.69 µg/mL
- IC50 at 72 h ([1]; Cytotoxicity IC50 HeLa): 3.4 µg/mL and 8 µM
- Cytotoxicity KB (KB): 0.58 µg/mL
- IC50 at 72 h [2]: 16.4 ± 1.25 µM
- IC50 at 72 h [3]: 11.4 ± 0.04 µM
- Cytotoxicity HT-29 (HT-29): 0.72 µg/mL

Compound: C=C(CC[C@@H](C)[C@H]1CCC2C3CC=C4C[C@@H](O)CC[C@]4(C)C3CC[C@@]21C)C(C)C (stereo partly drawn) [Compound 3, 24-methylcholesta-5,24(28)-diene-3β-ol]
- IC50 at 72 h [1, 7]: 48 ± 8.7 µM
- IC50 at 72 h ([3]; Vero cells): 100 ± 1.2 µM

Compound: CC1=CCCC(C)=CCC(O)(C(C)C)CCC(C)=CCC1 (centres unmarked) [Compound 1, sarcophytol M]
- IC50 (HIV-1 PR; read-out: IC50 HIV-1 PR): 15.7 ± 0.1 µM
- inhibition at 100 µg/mL (HIV-1 PR): 100%
- IC50 at 72 h [1, 8]: 8.1 µg/mL
- IC50 at 72 h [1, 7]: 27.5 ± 0.2 µM
- IC50 at 72 h ([2]; U937 cells): 31.7 ± 3.2 µM
- IC50 at 72 h ([3]; Vero cells): 22 ± 0.2 µM
